According to US20220125051A1, “PRE-HARVEST DESICCATION METHOD” (SYNGENTA CROP PROTECTION AG, priority 2019, published 2022):
Like-named read-outs stand apart in the source and are kept apart here.

Assays:
Assay type in all cases: in vivo
[1] = system: Amaranthus retroflexus (AMARE); assay: Post-emergence efficacy, Method B; conditions: read-out: Control of weed species after post-emergence application, AMARE
Procedure: (§1) An “instant formulation”, known as the IF50, containing 50 g/L of the “technical” (i.e. unformulated) active ingredient was prepared by dissolving the active ingredient in a mixture of organic solvents and emulsifier, details of which are provided in the table. This IF50 was then mixed with a small, variable amount of acetone to aid dissolution, before addition of an aqueous solution of 1% v/v ammonium sulphate+1% v/v Empicol ESC70 (Sodium lauryl ether sulphate) adjuvant, as the aqueous diluent, to form an aqueous spray solution which contains a predetermined concentration of the active ingredient (which varies depending on the application rate of the active ingredient to the plants).
(§2) This aqueous spray solution was then sprayed onto the plants, after about 12 days' cultivation. The plants were grown from seeds sown in standard soil, placed in a glasshouse under controlled conditions (at 24/18° C. or 20/16° C., day/night; 16 hours light; 65% humidity). After spray application the plants were then grown on in a glasshouse under the same conditions and watered twice daily. […] the test was evaluated (100=total damage to plant; 0=no damage to plant).
(§3) Ipomoea hederacea (IPOHE), Euphorbia heterophylla (EPHHL), Chenopodium album (CHEAL), Amaranthus retroflexus (AMARE), Lolium perenne (LOLPE), Digitaria sanguinalis (DIGSA), Eleusine indica (ELEIN), Echinochloa crus-galli (ECHCG), Setaria faberi (SETFA)

[2] = system: Ipomoea hederacea (IPOHE); assay: Post-emergence efficacy, Method B; conditions: read-out: Control of weed species after post-emergence application, IPOHE
Procedure: as §1, §2, §3

Setaria faberi (SETFA) [3] = assay: Post-emergence efficacy, Method B; conditions: read-out: Control of weed species after post-emergence application, SETFA
Procedure: as §1, §2, §3

[4] = system: Chenopodium album (CHEAL); assay: Post-emergence efficacy, Method B; conditions: read-out: Control of weed species after post-emergence application, CHEAL
Procedure: as §1, §2, §3

Eleusine indica (ELEIN) [5] = assay: Post-emergence efficacy, Method B; conditions: read-out: Control of weed species after post-emergence application, ELEIN
Procedure: as §1, §2, §3

[6] = system: Euphorbia heterophylla (EPHHL); assay: Post-emergence efficacy, Method B; conditions: read-out: Control of weed species after post-emergence application, EPHHL
Procedure: as §1, §2, §3

[7] = system: Digitaria sanguinalis (DIGSA); assay: Post-emergence efficacy, Method B; conditions: read-out: Control of weed species after post-emergence application, DIGSA
Procedure: as §1, §2, §3

Lolium perenne (LOLPE) [8] = assay: Post-emergence efficacy, Method B; conditions: read-out: Control of weed species after post-emergence application, LOLPE
Procedure: as §1, §2, §3

[9] = system: Echinochloa crus-galli (ECHCG); assay: Post-emergence efficacy, Method B; conditions: read-out: Control of weed species after post-emergence application, ECHCG
Procedure: as §1, §2, §3

[10] = system: Chenopodium album (CHEAL); assay: Post-emergence efficacy, Method A; conditions: Chenopodium album, post-emergence, 312 h; Application Rate 500 g/Ha; evaluated after 13 days; Method A; read-out: Control of weed species after post-emergence application, CHEAL (100=total damage to plant; 0=no damage to plant)
Method in brief: (§4)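 Visual damage score, 0 (no damage) to 100 (total), taken 13 d after spraying. Pot-grown plants at 14 d post-sowing received an aqueous spray from a 50 g/l acetone/IF50 solution diluted in 0.25% or 1% Empicol ESC70 + 1% ammonium sulphate; glasshouse 24/16 °C, 14 h light, 65% RH, watered twice daily.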

[11] = system: Amaranthus palmeri (AMAPA); assay: Post-emergence efficacy, Method A; conditions: Amaranthus palmeri, post-emergence, 312 h; Application Rate 500 g/Ha; evaluated after 13 days; Method A; read-out: Control of weed species after post-emergence application, AMAPA (100=total damage to plant; 0=no damage to plant)
Method in brief: as §4

Eleusine indica (ELEIN) [12] = assay: Post-emergence efficacy, Method A; conditions: evaluated after 13 days
Method in brief: as §4

[13] = system: Euphorbia heterophylla (EPHHL); assay: Post-emergence efficacy, Method A; conditions: evaluated after 13 days
Method in brief: as §4

Brassica napus (BRSNN) = assay: Pre-harvest desiccation of crop plants; conditions: Table E, evaluated after 7 and 14 days (which not stated), 100=total damage to plant, 0=no damage
Procedure: (§5) Seeds of a variety of test species were sown in standard loam based soil in pots. After cultivation from between 21 and 28 days (post-emergence) under controlled conditions in a glasshouse (at 24/16° C., day/night; 14 hours light; 65% humidity) for warm climate species and (at 20/16° C. day/night; 15 hours light; 65% humidity) for cool climate species.
(§6) The plants were sprayed with an aqueous spray solution derived from dissolving the technical active ingredient formula in a small amount of acetone and a special solvent and emulsifier mixture referred to as IF50 (11.12% Emulsogen EL360 TM+44.44% N-methylpyrrolidone+44.44% Dowanol DPM glycol ether), to create a 50 g/I solution which was then diluted to required concentration using a solution of 1% Empicol ESC70 (Sodium lauryl ether sulphate)+1% ammonium sulphate in water as diluent.
(§7) The delivery of the aqueous spray solution was via a laboratory track sprayer which delivered the aqueous spray composition at a rate of 200 litres per hectare, using a flat fan nozzle (Teejet 11002VS) and an application volume of 200 litre/ha (at 2 bar).
(§8) The test plants were then grown in a glasshouse under controlled conditions (at 24/16° C., day/night; 14 hours light; 65% humidity) for warm climate species and (at 20/16° C. day/night; 15 hours light; 65% humidity) for cool climate species and watered twice daily. After 7 and 14 days the test was evaluated (100=total damage to plant; 0=no damage to plant).
(§9) A value of n/t indicates not tested.
(§10) Glycine Max (GLXMA), Solanum turberosum (SOLTU), Gossypium hirsutum (GOSHI), Brassica napus (BRSNN), Helianthus annus (HELAN)

[14] = system: Solanum turberosum (SOLTU); assay: Pre-harvest desiccation of crop plants; conditions: Table E, evaluated after 7 and 14 days (which not stated), 100=total damage to plant, 0=no damage
Procedure: as §5, §6, §7, §8, §9, §10

[15] = system: Gossypium hirsutum (GOSHI); assay: Pre-harvest desiccation of crop plants; conditions: Table E, evaluated after 7 and 14 days (which not stated), 100=total damage to plant, 0=no damage
Procedure: as §5, §6, §7, §8, §9, §10

Glycine Max (GLXMA) = assay: Pre-harvest desiccation of crop plants; conditions: Table E, evaluated after 7 and 14 days (which not stated), 100=total damage to plant, 0=no damage
Procedure: as §5, §6, §7, §8, §9, §10

Setaria faberi (SETFA) [16] = assay: Post-emergence efficacy, Method A; conditions: Application rate 500 g/Ha; evaluated after 13 days; 100=total damage to plant, 0=no damage to plant
Method in brief: as §4

[17] = system: Digitaria sanguinalis (DIGSA); assay: Post-emergence efficacy, Method A; conditions: Application rate 500 g/Ha; evaluated after 13 days; 100=total damage to plant, 0=no damage to plant
Method in brief: as §4

Lolium perenne (LOLPE) [18] = assay: Post-emergence efficacy, Method A; conditions: Application rate 500 g/Ha; evaluated after 13 days; 100=total damage to plant, 0=no damage to plant
Method in brief: as §4

[19] = system: Echinochloa crus-galli (ECHCG); assay: Post-emergence efficacy, Method A; conditions: Application rate 500 g/Ha; evaluated after 13 days; 100=total damage to plant, 0=no damage to plant
Method in brief: as §4

[20] = Application rate 500 g/Ha, 100=total damage to plant, 0=no damage to plant
[21] = Method B, 1000 g/Ha, 100=total damage to plant, 0=no damage

O=S(=O)([O-])CC[n+]1ccc(-c2cccnn2)cn1 [Compound A213, 2-(4-pyridazin-1-ium-3-ylpyridazin-1-ium-1-yl)ethanesulfonate chloride]
pest or weed control at 1000 g/ha [1]: 100% | pest or weed control at 1000 g/ha [2]: 80% | pest or weed control at 1000 g/ha (Setaria faberi (SETFA) [3]): 100% | pest or weed control at 1000 g/ha [4]: 80% | pest or weed control at 1000 g/ha (Eleusine indica (ELEIN) [5]): 100% | pest or weed control at 1000 g/ha [6]: 100% | pest or weed control at 1000 g/ha [7]: 100% | pest or weed control at 1000 g/ha (Lolium perenne (LOLPE) [8]): 90% | pest or weed control at 1000 g/ha [9]: 100%

N[C@H](CC[n+]1ccc(-c2ncccn2)cn1)C(=O)O [Compound A207, [(1R)-1-carboxy-3-(4-pyrimidin-2-ylpyridazin-1-ium-1-yl)propyl]ammonium 2,2,2-trifluoroacetate]
pest or weed control at 500 g/ha [10]: 100% | pest or weed control at 500 g/ha [11]: 100% | pest or weed control at 500 g/ha (Eleusine indica (ELEIN) [12]; Eleusine indica, post-emergence, 312 h, Application Rate 500 g/Ha, Method A, read-out: Control of weed species after post-emergence application, ELEIN (100=total damage to plant; 0=no damage to plant)): 100% | pest or weed control at 500 g/ha ([13]; Euphorbia heterophylla, post-emergence, 312 h, Application Rate 500 g/Ha, Method A, read-out: Control of weed species after post-emergence application, EPHHL (100=total damage to plant; 0=no damage to plant)): 90% | pest or weed control at 1000 g/ha [1]: 100% | pest or weed control at 1000 g/ha [2]: 100% | pest or weed control at 1000 g/ha (Setaria faberi (SETFA) [3]): 100% | pest or weed control at 1000 g/ha [4]: 90% | pest or weed control at 1000 g/ha (Eleusine indica (ELEIN) [5]): 100% | pest or weed control at 1000 g/ha [6]: 70% | pest or weed control at 1000 g/ha [7]: 90% | pest or weed control at 1000 g/ha (Lolium perenne (LOLPE) [8]): 20% | pest or weed control at 1000 g/ha [9]: 100%

O=C(O)CC[n+]1ccc(-c2ncccn2)cn1.[Cl-] [Compound A26, 3-(4-pyrimidin-2-ylpyridazin-1-ium-1-yl)propanoic acid chloride]
Post-emergence dessication efficacy, BRSNN (Brassica napus (BRSNN); 150 g/Ha): 65 | Post-emergence dessication efficacy, BRSNN (Brassica napus (BRSNN); 300 g/Ha): 97 | Post-emergence dessication efficacy, BRSNN (Brassica napus (BRSNN); 600 g/Ha): 99 | Post-emergence dessication efficacy, SOLTU ([14]; 150 g/Ha): 62 | Post-emergence dessication efficacy, SOLTU ([14]; 300 g/Ha): 95 | Post-emergence dessication efficacy, SOLTU ([14]; 600 g/Ha): 73 | Post-emergence dessication efficacy, GOSHI ([15]; 150 g/Ha): 100 | Post-emergence dessication efficacy, GOSHI ([15]; 300 g/Ha): 100 | Post-emergence dessication efficacy, GOSHI ([15]; 600 g/Ha): 100 | Post-emergence dessication efficacy, GLXMA (Glycine Max (GLXMA); 150 g/Ha): 96 | Post-emergence dessication efficacy, GLXMA (Glycine Max (GLXMA); 300 g/Ha): 93 | Post-emergence dessication efficacy, GLXMA (Glycine Max (GLXMA); 600 g/Ha): 99 | Control of weed species after post-emergence application, SETFA (Setaria faberi (SETFA) [16]): 100 | Control of weed species after post-emergence application, ELEIN (Eleusine indica (ELEIN) [12]; [20]): 100 | Control of weed species after post-emergence application, EPHHL [13, 20]: 100 | Control of weed species after post-emergence application, DIGSA [17]: 100 | Control of weed species after post-emergence application, LOLPE (Lolium perenne (LOLPE) [18]): 90 | Control of weed species after post-emergence application, ECHCG [19]: 100

N#C[N-]C(=O)CC[n+]1ccc(-c2ncccn2)cn1 [Compound A226]
pest or weed control at 1000 g/ha [1, 21]: 100% | pest or weed control at 1000 g/ha [2, 21]: 100% | pest or weed control at 1000 g/ha (Setaria faberi (SETFA) [3]; [21]): 70% | pest or weed control at 1000 g/ha [4, 21]: 100% | pest or weed control at 1000 g/ha [7, 21]: 100% | pest or weed control at 1000 g/ha (Lolium perenne (LOLPE) [8]; [21]): 70% | pest or weed control at 1000 g/ha [9, 21]: 100%

Nc1ccnc(-c2cc[n+](CCC(=O)O)nc2)n1 [Compound A41]
pest or weed control at 1000 g/ha [1]: 100% | pest or weed control at 1000 g/ha [2]: 20% | pest or weed control at 1000 g/ha (Setaria faberi (SETFA) [3]): 100% | pest or weed control at 1000 g/ha [4]: 90% | pest or weed control at 1000 g/ha (Eleusine indica (ELEIN) [5]): 50% | pest or weed control at 1000 g/ha [6]: 100% | pest or weed control at 1000 g/ha [7]: 100% | pest or weed control at 1000 g/ha (Lolium perenne (LOLPE) [8]): 60% | pest or weed control at 1000 g/ha [9]: 100%

N[C@@H](CCC[n+]1ccc(-c2ncccn2)cn1)C(=O)O [Compound A211, [(1S)-1-carboxy-4-(4-pyrimidin-2-ylpyridazin-1-ium-1-yl)butyl]ammonium dichloride]
pest or weed control at 500 g/ha [1]: 100% | pest or weed control at 500 g/ha [2]: 100% | pest or weed control at 500 g/ha (Setaria faberi (SETFA) [3]): 100% | pest or weed control at 500 g/ha [4]: 90% | pest or weed control at 500 g/ha (Eleusine indica (ELEIN) [5]): 100% | pest or weed control at 500 g/ha [6]: 80% | pest or weed control at 500 g/ha [7]: 100% | pest or weed control at 500 g/ha (Lolium perenne (LOLPE) [8]): 10% | pest or weed control at 500 g/ha [9]: 100%
